Test results published in US20190316211A1, “ONCOGENIC ALTERNATIVE SPLICING SWITCH OF PACE4 IN CANCER” (SOCIETE DE COMMERCIALISATION DES PRODUITS DE LA RECHERCHE …, priority 2016, published 2019).

Tests used:
Assay type in all cases: cell-based
[1] = test system: CTCF binding to PCSK6 alternative terminal exon regions; test: Chromatin immunoprecipitation with anti-CTCF antibody; details: DU145 and LNCaP cells treated for 72 h
Procedure: Cells were cultured in 150 mm culture dishes and submitted to crosslinking through the addition of formaldehyde to a final concentration of 1.1% for 10 min at room temperature followed by a quenching step with 125 mM glycine for another 5 min. Cells were washed twice with ice-cold PBS, collected using a cell scraper and frozen in liquid nitrogen and stored at −80° C. until analyses. Cell pellets were resuspended in HEPES 10 mM pH 6.5; 0.5 mM EDTA, 0.25% Triton-X-100 and centrifugated at 4,000 rpm at 4° C. for 5 min. Pellet was further lysed by adding 200 μL of Tris 50 mM pH 8.1; 10 mM EDTA, 1% SDS and passing 3 times through a 28 G syringe. Cell preparations were incubated 1 h at 4° C. with constant agitation and nuclei were pelleted by a centrifugation at 5,000 rpm. […] DNA fragmentation was routinely assessed by agarose gel electrophoresis using 10 μL of the fragmented DNA solution (beforehand treated with RNase A 10 μg/mL for 10 min). For each IP, 350 μg of DNA were used (based on concentration determined using the OD260 nm) and 5% of the corresponding volumes were kept aside as Input DNA for quantitation. […] 3 μL of the purified DNA were further used for qPCR analyses and quantitation was established using the 1% input as a standard.

[2] = test system: CpG dinucleotides of interest in PCSK6 gene; test: CpG methylation status analysis by pyrosequencing; details: DU145 and LNCaP cells, 72 h, refreshed every 24 h
Description: FIG. 5 illustrates decitabine (5-aza-dC) efficiency at hypomethylating CpG dinucleotides of interest in PCSK6 gene, showing in (A) schematic representation of the 3′ extremity of PCSK6 gene, putting emphasis on the coding and non-coding region between exon 24, exon 25 and exon 25 alt, wherein ChiP-Seq enriched regions as viewed in UCSC genome browser ChiP-Seq are represented as ovals, each CpG nucleotide analyzed is highlighted, and the inversion of 5′ and 3′ ends is shown for reading purposes; (B) DU145 and LNCaP cells (C) were treated with decitabine at the indicated concentrations for 72 h (medium and decitabine being refreshed every 24 h) and DNA was extracted and used for CpG methylation status analysis using pyrosequencing.
DNA was purified from 14 pairs of tumoral and non-tumoral prostate biopsies and from DU145 and LNCaP cells treated with 5axa-dC using DNeasy Blood & Tissue Kit (Qiagen, #69504). Concentration, yield and purity of gDNA samples were measured using spectrometry. All samples provided good gDNA yield and quality (A260/A280 ratio between 1.7 and 2.0). Gold standard pyrosequencing technology was used to determine base-specific cytosine methylation levels located upstream of guanines (sequence called CpG dinucleotides). […] Overall, nine potentially methylated cytosines (in a CpG dinucleotides context) were analyzed at the PCSK6 gene locus.

LNCaP cells = test: PACE4 exon 25 splicing index (PACE4-altCT/PACE4-FL mRNA) by qPCR; details: treated for 72 h
Procedure: (§1) For actinomycin-D (Sigma Aldrich) or cycloheximide (Sigma Aldrich) treatments, compounds were first dissolved in DMSO, and diluted to a final concentration of 5 μg/mL and 40 μg/mL in the culture medium respectively. Actinomycin-D treatment never exceeded 8 h, which is the time-frame prior to early apoptosis induction. For treatments wit 5-aza-2′-deoxy-cytidine (Sigma Aldrich), compound was first dissolved in DMSO and further diluted prior to addition to cell culture medium, which was changed every day and replaced with fresh one containing the compound for a total exposure of 72 h. […]
(§2) 1 μg RNA was DNase I-treated (Invitrogen), reverse-transcribed using Superscript II reverse transcriptase (Invitrogen), and RNase H-treated (Ambion, Austin, Tex.) before quantitative PCR performed using a Stratagene Mx3005P instrument. Relative expression levels were calculated using β-actin as a reference gene with the formula (1+amplification efficiency)^−(CT). […]

DU145 cells = test: as above; details: DU145, treated for 72 h
Procedure: as §1, §2

PACE4-FL = biological target: T1, PACE4-FL (Homo sapiens, UniProt P29122); test: PACE4 secretion assay, displacement by heparin; details: increasing doses
T1 construct: V5 (C); His (C); expressed in transfected cells
T1 sequence (P29122 150-969): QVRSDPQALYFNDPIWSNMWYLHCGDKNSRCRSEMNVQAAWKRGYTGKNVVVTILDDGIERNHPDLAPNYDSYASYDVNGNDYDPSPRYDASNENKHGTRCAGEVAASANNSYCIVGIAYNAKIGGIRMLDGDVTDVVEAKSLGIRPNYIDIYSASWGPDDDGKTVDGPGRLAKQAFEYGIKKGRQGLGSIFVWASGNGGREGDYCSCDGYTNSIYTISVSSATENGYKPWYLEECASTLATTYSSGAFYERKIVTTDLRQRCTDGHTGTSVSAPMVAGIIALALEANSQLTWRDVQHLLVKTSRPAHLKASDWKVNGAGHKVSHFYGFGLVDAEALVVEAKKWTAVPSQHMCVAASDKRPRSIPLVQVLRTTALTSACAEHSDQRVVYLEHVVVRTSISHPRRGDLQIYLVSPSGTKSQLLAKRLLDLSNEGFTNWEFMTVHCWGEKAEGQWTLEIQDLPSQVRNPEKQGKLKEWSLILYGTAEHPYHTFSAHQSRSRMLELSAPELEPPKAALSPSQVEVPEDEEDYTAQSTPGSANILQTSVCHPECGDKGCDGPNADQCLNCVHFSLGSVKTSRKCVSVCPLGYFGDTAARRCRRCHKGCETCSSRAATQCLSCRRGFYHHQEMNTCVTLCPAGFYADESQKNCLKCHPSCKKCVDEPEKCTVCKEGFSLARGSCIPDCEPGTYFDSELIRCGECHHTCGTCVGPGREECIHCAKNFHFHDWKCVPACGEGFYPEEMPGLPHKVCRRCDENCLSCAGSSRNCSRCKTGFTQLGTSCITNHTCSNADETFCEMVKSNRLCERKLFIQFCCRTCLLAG
Description: (§3) The first major distinction observed was the lack of secretion of PACE4-altCT accompanied with intracellular retention when compared to PACE4-FL which was efficiently secreted in the medium (FIGS. 7B and C). This observation correlated with the distinct cell distribution observed for each isoforms in IHC, i.e. the PACE4-FL being more accumulated at the membrane/extracellular surface compared to PACE4-altCT being restricted to the vesicular intracellular compartment (FIG. 3D). PACE4, at least PACE4-FL, is known to be secreted in the medium and to be retained in the extracellular matrix through the binding to heparan sulfate proteoglycans by its cysteine-rich domain and to be displaceable by heparin.
(§4) For PACE4 secretion assays, cells were plated at equal densities in 6-well plates for 24 h in complete medium. 24 h later, the medium was replaced by the minimal volume required of fresh culture medium (600 μL without FBS) and the cells were either allowed to secrete for the indicated time (for secretion kinetics) or (for inhibitor treatments) allowed to secrete for an additional 24 h in the presence of the indicated concentrations of agents (heparin (Sandoz, Niirnberg, Germany), 2-bromopalmitate (Sigma Aldrich), FTI-277 (Sigma Aldrich), GGTI-2133 (Santa Cruz Biotechnology Inc., Santa Cruz, Calif., USA)

PACE4-altCT = biological target: T2, PACE4-altCT (Homo sapiens, UniProt P29122); test: PACE4 secretion assay, displacement by heparin; details: increasing doses
T2 construct: V5 (C); His (C); expressed in transfected cells
T2 sequence (P29122 with tags, fused parts or gaps limits assumed): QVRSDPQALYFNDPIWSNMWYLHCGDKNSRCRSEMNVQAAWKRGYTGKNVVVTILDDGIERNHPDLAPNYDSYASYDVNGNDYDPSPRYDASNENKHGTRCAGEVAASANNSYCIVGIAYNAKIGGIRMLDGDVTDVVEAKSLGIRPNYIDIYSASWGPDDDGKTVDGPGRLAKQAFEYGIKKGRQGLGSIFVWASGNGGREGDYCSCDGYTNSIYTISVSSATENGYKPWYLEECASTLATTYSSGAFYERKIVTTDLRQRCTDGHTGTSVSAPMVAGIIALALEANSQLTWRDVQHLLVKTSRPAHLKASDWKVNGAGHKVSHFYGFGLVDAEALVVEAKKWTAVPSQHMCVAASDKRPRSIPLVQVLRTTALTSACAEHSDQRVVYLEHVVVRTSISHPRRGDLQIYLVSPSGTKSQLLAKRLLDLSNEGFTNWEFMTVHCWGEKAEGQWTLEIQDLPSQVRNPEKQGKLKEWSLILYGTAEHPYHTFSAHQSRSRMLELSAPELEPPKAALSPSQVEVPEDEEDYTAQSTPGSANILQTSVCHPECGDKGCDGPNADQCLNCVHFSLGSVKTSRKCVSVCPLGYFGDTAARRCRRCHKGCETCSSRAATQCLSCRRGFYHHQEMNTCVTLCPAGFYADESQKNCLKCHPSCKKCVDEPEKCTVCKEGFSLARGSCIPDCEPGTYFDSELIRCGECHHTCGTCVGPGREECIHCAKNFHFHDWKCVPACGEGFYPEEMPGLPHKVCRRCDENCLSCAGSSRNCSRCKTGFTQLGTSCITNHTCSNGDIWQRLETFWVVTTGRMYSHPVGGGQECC
Description: as §3, §4

| Compound | CTCF ChIP enrichment of intra-exonic and upstream region [1] | CpG hypomethylation [2] | change of splicing index (LNCaP cells) | change of splicing index (DU145 cells) | displacement into the medium by heparin (PACE4-FL) | displacement into the medium by heparin (PACE4-altCT) |
| --- | --- | --- | --- | --- | --- | --- |
| Nc1ncn([C@H]2C[C@H](O)[C@@H](CO)O2)c(=O)n1 [decitabine, 5-aza-2′-deoxycytidine] | clear enrichment | sensitive to decitabine in a dose-dependent manner | increased in a dose-dependent manner | increased in a dose-dependent manner |  |  |
| heparin |  |  |  |  | increased amount in the medium | could not be displaced |
